Values after ≈ are worked out from the molar mass of the structure shown.
How the values were obtained:
Type in all cases: functional
[1] = system: Prevotella intermedia; assay: Antibacterial activity against Prevotella intermedia by CLSI M11-A6 agar dilution method
[2] = system: Sutterella wadsworthensis; assay: Antibacterial activity against Sutterella wadsworthensis by CLSI M11-A6 agar dilution method
[3] = system: Flavonifractor plautii; assay: Antibacterial activity against Clostridium orbiscindens by CLSI M11-A6 agar dilution method
[4] = system: Holdemania filiformis; assay: Antibacterial activity against Holdemania filiformis by CLSI M11-A6 agar dilution method
[5] = system: Thomasclavelia ramosa; assay: Antibacterial activity against Clostridium ramosum by CLSI M11-A6 agar dilution method
[6] = system: Prevotella oris; assay: Antibacterial activity against Prevotella oris by CLSI M11-A6 agar dilution method; settings: Segatella oris
[7] = system: Peptoniphilus asaccharolyticus; assay: Antibacterial activity against Peptoniphilus asaccharolyticus by CLSI M11-A6 agar dilution method
[8] = system: Prevotella disiens; assay: Antibacterial activity against Prevotella P disiens by CLSI M11-A6 agar dilution method
[9] = system: Clostridium bolteae; assay: Antibacterial activity against Clostridium bolteae by CLSI M11-A6 agar dilution method; settings: Enterocloster bolteae
[10] = system: Phocaeicola vulgatus; assay: Antibacterial activity against Bacteroides vulgatus by CLSI M11-A6 agar dilution method
[11] = system: Paraclostridium bifermentans; assay: Antibacterial activity against Clostridium bifermentans by CLSI M11-A6 agar dilution method
[12] = system: Clostridium perfringens; assay: Antibacterial activity against Clostridium perfringens by CLSI M11-A6 agar dilution method
[13] = system: Streptococcus constellatus; assay: Antibacterial activity against Streptococcus constellatus by CLSI M11-A6 agar dilution method
[14] = system: Prevotella nigrescens; assay: Antibacterial activity against Prevotella nigrescens by CLSI M11-A6 agar dilution method
[15] = system: Prevotella intermedia; assay: Antibacterial activity against Prevotella P intermedia by CLSI M11-A6 agar dilution method
[16] = system: Clostridium tertium; assay: Antibacterial activity against Clostridium tertium by CLSI M11-A6 agar dilution method
[17] = system: Clostridium hathewayi; assay: Antibacterial activity against Clostridium hathewayi by CLSI M11-A6 agar dilution method; settings: Hungatella hathewayi
[18] = system: Bacteroides ovatus; assay: Antibacterial activity against Bacteroides ovatus by CLSI M11-A6 agar dilution method
[19] = system: Ruminococcus sp.; assay: Antibacterial activity against Ruminococcus sp. by CLSI M11-A6 agar dilution method
[20] = system: Clostridium butyricum; assay: Antibacterial activity against Clostridium butyricum by CLSI M11-A6 agar dilution method
[21] = system: Peptostreptococcus anaerobius; assay: Antibacterial activity against Peptostreptococcus anaerobius by CLSI M11-A6 agar dilution method
[22] = system: Ruminococcus albus; assay: Antibacterial activity against Ruminococcus albus by CLSI M11-A6 agar dilution method; settings: Hominimerdicola alba
[23] = system: Prevotella melaninogenica; assay: Antibacterial activity against Prevotella melaninogenica by CLSI M11-A6 agar dilution method
[24] = system: Clostridium; assay: Antibacterial activity against Clostridium hypermegas by CLSI M11-A6 agar dilution method
[25] = system: Fusobacterium varium; assay: Antibacterial activity against Fusobacterium varium by CLSI M11-A6 agar dilution method
[26] = system: Clostridium celerecrescens; assay: Antibacterial activity against Clostridium celerecrescens by CLSI M11-A6 agar dilution method; settings: Lacrimispora celerecrescens
[27] = system: Odoribacter splanchnicus; assay: Antibacterial activity against Bacteroides splanchnicus by CLSI M11-A6 agar dilution method
[28] = system: Clostridium paraputrificum; assay: Antibacterial activity against Clostridium paraputrificum by CLSI M11-A6 agar dilution method
[29] = system: Clostridium sporogenes; assay: Antibacterial activity against Clostridium sporogenes by CLSI M11-A6 agar dilution method
[30] = system: Parvimonas micra; assay: Antibacterial activity against Peptostreptococcus micros by CLSI M11-A6 agar dilution method
[31] = system: Propionibacterium propionicum; assay: Antibacterial activity against Propionibacterium propionicus by CLSI M11-A6 agar dilution method; settings: Arachnia propionica
[32] = system: Streptococcus intermedius; assay: Antibacterial activity against Streptococcus intermedius by CLSI M11-A6 agar dilution method
[33] = system: Prevotella bivia; assay: Antibacterial activity against Prevotella bivia by CLSI M11-A6 agar dilution method
[34] = system: Hoylesella loescheii; assay: Antibacterial activity against Prevotella loescheii by CLSI M11-A6 agar dilution method
[35] = system: Clostridioides difficile; assay: Antibacterial activity against Clostridium difficile by CLSI M11-A6 agar dilution method
[36] = system: Blautia producta; assay: Antibacterial activity against Ruminococcus productus by CLSI M11-A6 agar dilution method
[37] = system: Eggerthella lenta; assay: Antibacterial activity against Eggerthella lenta by CLSI M11-A6 agar dilution method
[38] = system: Collinsella aerofaciens; assay: Antibacterial activity against Colinsella aerofaciens by CLSI M11-A6 agar dilution method
[39] = system: Bacteroides fragilis; assay: Antibacterial activity against Bacteroides fragilis by CLSI M11-A6 agar dilution method

SMILES: CCCCCCCCCCNCCN[C@@]1(C)C[C@H](O[C@H]2[C@H](Oc3c4cc5cc3Oc3ccc(cc3Cl)[C@@H](O)[C@@H](NC(=O)[C@@H](CC(C)C)NC)C(=O)N[C@@H](CC(N)=O)C(=O)N[C@H]5C(=O)N[C@H]3C(=O)N[C@H](C(=O)N[C@H](C(=O)O)c5cc(O)c(CNCP(=O)(O)O)c(O)c5-c5cc3ccc5O)[C@H](O)c3ccc(c(Cl)c3)O4)O[C@H](CO)[C@@H](O)[C@@H]2O)O[C@@H](C)[C@H]1O [TELAVANCIN]
- MIC50 [1]: 8 µg/mL (≈ 4.56 µM)
- MIC90 [1]: 64 µg/mL (≈ 36.5 µM)
- MIC [2]: > 64 µg/mL
- MIC50 [2]: > 64 µg/mL
- MIC90 [2]: > 64 µg/mL
- MIC50 [3]: ≤ 0.12 µg/mL
- MIC90 [3]: 0.25 µg/mL (≈ 0.142 µM)
- MIC50 [4]: ≤ 0.12 µg/mL
- MIC90 [4]: 0.5 µg/mL (≈ 0.285 µM)
- MIC [5]: 0.25 µg/mL (≈ 0.142 µM)
- MIC50 [5]: 0.25 µg/mL (≈ 0.142 µM)
- MIC90 [5]: 0.25 µg/mL (≈ 0.142 µM)
- MIC50 [6]: 8 µg/mL (≈ 4.56 µM)
- MIC90 [6]: 64 µg/mL (≈ 36.5 µM)
- MIC50 [7]: ≤ 0.12 µg/mL
- MIC90 [7]: 0.25 µg/mL (≈ 0.142 µM)
- MIC50 [8]: 8 µg/mL (≈ 4.56 µM)
- MIC90 [8]: 64 µg/mL (≈ 36.5 µM)
- MIC50 [9]: 4 µg/mL (≈ 2.28 µM)
- MIC90 [9]: 8 µg/mL (≈ 4.56 µM)
- MIC [10]: > 64 µg/mL
- MIC50 [10]: > 64 µg/mL
- MIC90 [10]: > 64 µg/mL
- MIC50 [11]: ≤ 0.12 µg/mL
- MIC90 [11]: 0.25 µg/mL (≈ 0.142 µM)
- MIC50 [12]: ≤ 0.12 µg/mL
- MIC90 [12]: 0.25 µg/mL (≈ 0.142 µM)
- MIC50 [13]: ≤ 0.12 µg/mL
- MIC90 [13]: ≤ 0.12 µg/mL
- MIC50 [14]: 8 µg/mL (≈ 4.56 µM)
- MIC90 [14]: 64 µg/mL (≈ 36.5 µM)
- MIC50 [15]: 8 µg/mL (≈ 4.56 µM)
- MIC90 [15]: 64 µg/mL (≈ 36.5 µM)
- MIC50 [16]: ≤ 0.12 µg/mL
- MIC90 [16]: 0.25 µg/mL (≈ 0.142 µM)
- MIC50 [17]: 0.5 µg/mL (≈ 0.285 µM)
- MIC90 [17]: 1 µg/mL (≈ 0.57 µM)
- MIC [18]: > 64 µg/mL
- MIC50 [18]: > 64 µg/mL
- MIC90 [18]: > 64 µg/mL
- MIC50 [19]: ≤ 0.12 µg/mL
- MIC90 [19]: 0.25 µg/mL (≈ 0.142 µM)
- MIC50 [20]: ≤ 0.12 µg/mL
- MIC90 [20]: 0.25 µg/mL (≈ 0.142 µM)
- MIC50 [21]: ≤ 0.12 µg/mL
- MIC90 [21]: 0.25 µg/mL (≈ 0.142 µM)
- MIC50 [22]: ≤ 0.12 µg/mL
- MIC90 [22]: ≤ 0.12 µg/mL
- MIC50 [23]: 8 µg/mL (≈ 4.56 µM)
- MIC90 [23]: 64 µg/mL (≈ 36.5 µM)
- MIC50 [24]: ≤ 0.12 µg/mL
- MIC90 [24]: 0.25 µg/mL (≈ 0.142 µM)
- MIC50 [25]: > 64 µg/mL
- MIC90 [25]: > 64 µg/mL
- MIC50 [26]: ≤ 0.12 µg/mL
- MIC90 [26]: 0.25 µg/mL (≈ 0.142 µM)
- MIC50 [27]: > 64 µg/mL
- MIC90 [27]: > 64 µg/mL
- MIC50 [28]: ≤ 0.12 µg/mL
- MIC90 [28]: 0.25 µg/mL (≈ 0.142 µM)
- MIC50 [29]: ≤ 0.12 µg/mL
- MIC90 [29]: 0.25 µg/mL (≈ 0.142 µM)
- MIC50 [30]: ≤ 0.12 µg/mL
- MIC90 [30]: 0.25 µg/mL (≈ 0.142 µM)
- MIC50 [31]: ≤ 0.12 µg/mL
- MIC90 [31]: 0.5 µg/mL (≈ 0.285 µM)
- MIC50 [32]: ≤ 0.12 µg/mL
- MIC90 [32]: ≤ 0.12 µg/mL
- MIC50 [33]: 8 µg/mL (≈ 4.56 µM)
- MIC90 [33]: 64 µg/mL (≈ 36.5 µM)
- MIC50 [34]: 8 µg/mL (≈ 4.56 µM)
- MIC90 [34]: 64 µg/mL (≈ 36.5 µM)
- MIC50 [35]: 0.25 µg/mL (≈ 0.142 µM)
- MIC90 [35]: 0.25 µg/mL (≈ 0.142 µM)
- MIC50 [36]: ≤ 0.12 µg/mL
- MIC90 [36]: ≤ 0.12 µg/mL
- MIC50 [37]: ≤ 0.12 µg/mL
- MIC90 [37]: 0.5 µg/mL (≈ 0.285 µM)
- MIC50 [38]: ≤ 0.12 µg/mL
- MIC90 [38]: 0.5 µg/mL (≈ 0.285 µM)
- MIC [39]: > 64 µg/mL
- MIC50 [39]: > 64 µg/mL
- MIC90 [39]: > 64 µg/mL

Source: ChEMBL document CHEMBL1671662, “In vitro activities of telavancin and six comparator agents against anaerobic bacterial isolates” (2009)
